Assays:
Type in all cases: binding
Parameters in all cases: KINOMEscan: ABL1(F317L)-phosphorylated / KINOMEscan: ABL1(H396P)-nonphosphorylated / KINOMEscan: ABL1(H396P)-phosphorylated / KINOMEscan: ABL1(M351T)-phosphorylated / KINOMEscan: ABL1(T315I)-phosphorylated / KINOMEscan: ABL1-nonphosphorylated / KINOMEscan: ABL1-phosphorylated / KINOMEscan: ACVR2A / KINOMEscan: ACVR2B / KINOMEscan: ADCK3 / KINOMEscan: ADCK4 / KINOMEscan: AKT1 / KINOMEscan: AKT3 / KINOMEscan: ALK / KINOMEscan: ARK5 / KINOMEscan: AURKA / KINOMEscan: AURKC / KINOMEscan: BIKE / KINOMEscan: BMPR1A / KINOMEscan: BMPR1B / KINOMEscan: BMX / KINOMEscan: BRK / KINOMEscan: BRSK1 / KINOMEscan: BRSK2 / KINOMEscan: CAMK1 / KINOMEscan: CAMK1D / KINOMEscan: CAMK1G / KINOMEscan: CAMK2A / KINOMEscan: CAMK2B / KINOMEscan: AAK1 / KINOMEscan: CAMK2D / KINOMEscan: CAMK2G / KINOMEscan: ABL1(F317I)-nonphosphorylated / KINOMEscan: ABL1(F317I)-phosphorylated / KINOMEscan: ABL1(F317L)-nonphosphorylated: unit: % Ctrl
Conditions in all cases: Compound Concentration 10 µM
panel of 442 kinases [1] = target: T1, panel of 442 kinases (Homo sapiens, UniProt Q14012)
T1 construct: purchased KINOMEscan
Text: (§1) We assessed the selectivity of members of this scaffold using the KINOMEscan methodology across a near comprehensive panel of 442 kinases [[18,27]].

panel of 442 kinases [2] = target: T2, panel of 442 kinases (Homo sapiens, UniProt Q15418)
T2 construct: purchased KINOMEscan
Text: as §1

panel of 442 kinases [3] = target: T3, panel of 442 kinases (Homo sapiens, UniProt P08581, M1250T)
T3 construct: purchased KINOMEscan
Text: as §1

panel of 442 kinases [4] = target: T4, panel of 442 kinases (Homo sapiens, UniProt P21860)
T4 construct: purchased KINOMEscan
Text: as §1

T4 sequence (P21860 20-1342): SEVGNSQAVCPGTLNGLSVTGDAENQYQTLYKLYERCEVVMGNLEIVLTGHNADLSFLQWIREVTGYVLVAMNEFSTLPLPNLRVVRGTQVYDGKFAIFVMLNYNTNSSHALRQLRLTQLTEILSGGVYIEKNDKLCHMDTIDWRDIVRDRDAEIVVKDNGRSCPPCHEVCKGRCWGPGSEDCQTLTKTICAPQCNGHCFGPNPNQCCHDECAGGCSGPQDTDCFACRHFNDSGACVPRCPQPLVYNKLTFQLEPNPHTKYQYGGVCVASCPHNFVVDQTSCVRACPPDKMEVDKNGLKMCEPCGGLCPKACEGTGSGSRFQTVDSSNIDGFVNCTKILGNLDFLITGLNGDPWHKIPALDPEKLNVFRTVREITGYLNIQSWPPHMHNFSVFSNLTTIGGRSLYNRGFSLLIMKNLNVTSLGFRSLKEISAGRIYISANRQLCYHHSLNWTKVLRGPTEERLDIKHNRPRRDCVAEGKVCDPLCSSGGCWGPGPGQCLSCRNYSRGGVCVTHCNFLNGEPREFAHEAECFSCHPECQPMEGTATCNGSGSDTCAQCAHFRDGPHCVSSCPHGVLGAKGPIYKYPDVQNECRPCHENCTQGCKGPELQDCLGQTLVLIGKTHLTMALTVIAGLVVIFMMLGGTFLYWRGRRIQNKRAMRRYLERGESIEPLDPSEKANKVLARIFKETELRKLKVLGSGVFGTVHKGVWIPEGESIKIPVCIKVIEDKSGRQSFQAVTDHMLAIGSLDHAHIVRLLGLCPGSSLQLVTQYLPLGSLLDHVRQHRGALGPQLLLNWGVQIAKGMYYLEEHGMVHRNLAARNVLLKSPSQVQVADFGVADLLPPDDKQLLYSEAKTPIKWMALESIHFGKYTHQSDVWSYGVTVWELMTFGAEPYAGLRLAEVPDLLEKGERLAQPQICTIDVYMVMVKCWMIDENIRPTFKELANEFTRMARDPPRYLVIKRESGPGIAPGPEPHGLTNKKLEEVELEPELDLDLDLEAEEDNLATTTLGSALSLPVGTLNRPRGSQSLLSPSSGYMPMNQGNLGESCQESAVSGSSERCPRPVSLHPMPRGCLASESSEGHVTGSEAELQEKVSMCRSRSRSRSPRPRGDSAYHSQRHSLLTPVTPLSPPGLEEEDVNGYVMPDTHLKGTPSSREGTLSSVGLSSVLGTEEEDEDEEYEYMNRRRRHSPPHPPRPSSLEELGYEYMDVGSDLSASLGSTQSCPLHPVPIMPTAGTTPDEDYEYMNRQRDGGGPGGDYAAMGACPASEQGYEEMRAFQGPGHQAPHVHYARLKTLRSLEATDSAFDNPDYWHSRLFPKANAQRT
T3 sequence (P08581 25-1390 M1250T): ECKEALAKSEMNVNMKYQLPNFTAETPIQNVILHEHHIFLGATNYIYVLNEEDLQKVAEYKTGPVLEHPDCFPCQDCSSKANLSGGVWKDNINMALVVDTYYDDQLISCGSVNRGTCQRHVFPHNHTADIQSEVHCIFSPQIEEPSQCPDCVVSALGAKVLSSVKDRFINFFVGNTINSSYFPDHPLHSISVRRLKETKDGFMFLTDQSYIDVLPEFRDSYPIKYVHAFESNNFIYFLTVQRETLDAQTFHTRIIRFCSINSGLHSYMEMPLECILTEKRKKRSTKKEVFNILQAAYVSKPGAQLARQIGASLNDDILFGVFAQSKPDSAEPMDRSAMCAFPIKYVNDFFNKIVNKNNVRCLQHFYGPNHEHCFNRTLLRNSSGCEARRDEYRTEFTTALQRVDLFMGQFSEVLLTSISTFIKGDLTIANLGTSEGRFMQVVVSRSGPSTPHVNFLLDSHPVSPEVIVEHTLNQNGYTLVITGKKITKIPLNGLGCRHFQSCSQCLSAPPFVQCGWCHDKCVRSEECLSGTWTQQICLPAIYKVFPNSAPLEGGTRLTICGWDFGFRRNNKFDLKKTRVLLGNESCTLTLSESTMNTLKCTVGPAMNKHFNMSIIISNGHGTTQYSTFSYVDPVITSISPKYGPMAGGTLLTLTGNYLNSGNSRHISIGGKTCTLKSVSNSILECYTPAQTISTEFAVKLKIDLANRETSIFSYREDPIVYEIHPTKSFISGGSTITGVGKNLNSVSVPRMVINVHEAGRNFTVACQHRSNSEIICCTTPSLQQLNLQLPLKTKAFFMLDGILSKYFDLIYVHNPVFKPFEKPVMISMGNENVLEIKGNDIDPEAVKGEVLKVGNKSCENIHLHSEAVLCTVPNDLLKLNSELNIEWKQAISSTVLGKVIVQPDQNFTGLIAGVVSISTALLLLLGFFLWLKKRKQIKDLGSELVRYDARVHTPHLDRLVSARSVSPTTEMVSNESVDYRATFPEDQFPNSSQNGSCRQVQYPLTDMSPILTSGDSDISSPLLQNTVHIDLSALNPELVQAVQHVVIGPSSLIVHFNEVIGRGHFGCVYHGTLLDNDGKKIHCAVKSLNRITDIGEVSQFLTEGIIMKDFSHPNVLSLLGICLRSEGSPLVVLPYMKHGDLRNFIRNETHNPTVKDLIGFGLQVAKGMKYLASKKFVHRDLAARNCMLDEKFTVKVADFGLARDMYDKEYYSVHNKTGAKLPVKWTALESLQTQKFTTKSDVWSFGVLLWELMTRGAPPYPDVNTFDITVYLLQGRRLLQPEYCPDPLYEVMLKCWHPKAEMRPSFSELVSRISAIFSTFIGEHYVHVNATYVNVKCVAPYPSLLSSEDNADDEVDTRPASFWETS
T1 sequence (Q14012 whole entry): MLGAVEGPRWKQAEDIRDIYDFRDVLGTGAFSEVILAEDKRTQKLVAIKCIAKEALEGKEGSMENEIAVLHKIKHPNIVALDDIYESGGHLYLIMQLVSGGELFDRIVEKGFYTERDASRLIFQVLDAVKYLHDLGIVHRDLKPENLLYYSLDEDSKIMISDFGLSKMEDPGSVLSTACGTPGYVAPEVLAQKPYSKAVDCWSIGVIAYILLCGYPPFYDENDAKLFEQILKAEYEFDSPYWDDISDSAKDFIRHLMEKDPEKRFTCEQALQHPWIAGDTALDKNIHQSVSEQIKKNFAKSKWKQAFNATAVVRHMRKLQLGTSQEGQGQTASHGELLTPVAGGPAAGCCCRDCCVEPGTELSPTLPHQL
T2 sequence (Q15418 whole entry): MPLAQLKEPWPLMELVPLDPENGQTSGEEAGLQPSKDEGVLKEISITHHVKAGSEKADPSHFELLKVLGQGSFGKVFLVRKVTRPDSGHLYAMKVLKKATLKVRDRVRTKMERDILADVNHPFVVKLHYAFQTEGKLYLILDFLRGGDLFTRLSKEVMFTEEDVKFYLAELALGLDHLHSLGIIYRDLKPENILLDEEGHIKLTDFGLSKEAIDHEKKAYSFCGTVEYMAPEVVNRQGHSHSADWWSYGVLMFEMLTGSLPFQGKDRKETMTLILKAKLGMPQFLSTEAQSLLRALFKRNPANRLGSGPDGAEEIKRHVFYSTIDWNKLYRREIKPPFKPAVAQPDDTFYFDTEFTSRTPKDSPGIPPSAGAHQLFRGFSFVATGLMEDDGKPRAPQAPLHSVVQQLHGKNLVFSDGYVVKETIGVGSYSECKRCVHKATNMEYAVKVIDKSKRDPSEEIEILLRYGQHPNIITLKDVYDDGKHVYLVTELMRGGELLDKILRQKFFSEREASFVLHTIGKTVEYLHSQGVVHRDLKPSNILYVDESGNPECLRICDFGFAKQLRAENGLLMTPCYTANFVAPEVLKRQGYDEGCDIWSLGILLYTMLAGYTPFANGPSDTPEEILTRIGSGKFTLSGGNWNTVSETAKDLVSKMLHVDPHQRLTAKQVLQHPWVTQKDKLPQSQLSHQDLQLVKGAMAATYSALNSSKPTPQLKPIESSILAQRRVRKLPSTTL

| SMILES | KINOMEscan: CAMK1 (panel of 442 kinases [1]) | KINOMEscan: RSK1(Kin.Dom.1-N-terminal) (panel of 442 kinases [2]) | KINOMEscan: RSK1(Kin.Dom.2-C-terminal) (panel of 442 kinases [2]) | KINOMEscan: MET(M1250T) (panel of 442 kinases [3]) | KINOMEscan: ERBB3 (panel of 442 kinases [4]) |
| --- | --- | --- | --- | --- | --- |
| COc1cc(C(=O)N2CCC(N3CCN(C)CC3)CC2)ccc1Nc1ncc2c(n1)N1CCc3cccc(c31)C(=O)N2C [Compound 24] | 68 | 71 | 22 | 88 |  |
| CCOc1cc(C(=O)N2CCC(N3CCN(C)CC3)CC2)ccc1Nc1ncc2c(n1)N(C1CCCC1)c1ccccc1C(=O)N2C [Compound 26] | 37 | 100 | 88 | 100 | 100 |
| COc1cc(C(=O)N2CCC(N3CCN(C)CC3)CC2)ccc1Nc1ncc2c(n1)N(C1CCCC1)c1ccccc1C(=O)N2C [Compound 25, 11-cyclopentyl-2-((2-methoxy-4-(4-(4-methylpiperazin-1-yl)piperidine-1-carbonyl)phenyl)amino)-5-methyl-5H-benzo[e]pyrimido[5,4-b][1,4]diazepin-6(11H)-one] | 48 | 75 | 63 | 95 | 100 |
| COc1cc(C(=O)N2CCC(N3CCN(C)CC3)CC2)ccc1Nc1ncc2c(n1)N(C)c1ccccc1C(=O)N2C [15 (LRRK2-IN-1)] | 55 | 73 | 10 | 96 | 100 |

From article PMC3914206
